Measurements reported in US20240383886A1, “Protein Tyrosine Phosphatase Degraders and Methods of Use Thereof” (CALICO LIFE SCIENCES LLC, priority 2019, published 2024).

Assays:
PTPN2 [1] = assay: HiBiT-Degradation B16F10.4 PTPN2; format: cell-based; conditions: B16F10.4 cells, 24.0 hours
PTPN2 [2] = target: T1, PTPN2 (Homo sapiens, UniProt P17706); assay: HiBiT-Degradation 293T.109 PTPN2 (Nano-Glo HiBiT Lytic Assay); format: cell-based; conditions: 293T.109 (HiBiT-PTPN2) cells, 24.0 hours
T1 construct: expressed in transfected cells; host or cells: 293T (293T.109 HiBiT-PTPN2 line; parental 293T WT from ATCC)
T1 sequence (P17706 1-415): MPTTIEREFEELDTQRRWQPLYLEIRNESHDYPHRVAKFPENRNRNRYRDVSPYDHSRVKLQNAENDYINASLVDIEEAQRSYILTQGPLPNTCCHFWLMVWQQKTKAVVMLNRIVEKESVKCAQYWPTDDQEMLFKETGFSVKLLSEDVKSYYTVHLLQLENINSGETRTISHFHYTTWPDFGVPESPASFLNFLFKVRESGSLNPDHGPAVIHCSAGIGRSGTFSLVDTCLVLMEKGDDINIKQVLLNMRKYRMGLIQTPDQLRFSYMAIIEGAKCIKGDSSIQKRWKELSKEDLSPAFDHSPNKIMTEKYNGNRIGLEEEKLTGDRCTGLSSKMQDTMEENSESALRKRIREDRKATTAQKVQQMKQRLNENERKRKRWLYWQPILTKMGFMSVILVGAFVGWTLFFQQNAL
Excerpt: Dulbecco's modified Eagle medium (DMEM) without phenol red and fetal bovine serum (FBS) were purchased from Gibco (Grand Island, NY, USA). Nano-Glo® HiBIT Lytic Assay System was purchased from Promega (Madison, WI, USA). 293T.109 (HiBiT-PTPN2) cell line was generated by ectopically expressing PTPN2 with N-terminal HiBiT fusion tag in 293T WT cell line purchased from ATCC (Manassas, VA, USA). Cell culture flasks and 384-well microplates were acquired from VWR (Radnor, PA, USA).
PTPN2 degradation was determined based on quantification of luminescent signal using Nano-Glo® HiBIT Lytic Assay kit. Test compounds were added to the 384-well plate from a top concentration of 10 μM with 11 points, half log titration in duplicates. 293T.109 cells were added into 384-well plates at a cell density of 5000 cells per well. The plates were kept at 37° C. with 5% CO2 for 24 hours. The cells treated in the absence of the test compound were the negative control and the cells without Nano-Glo® HiBiT Lytic reagent were the positive control. After 24-hour incubation, Nano-Glo® HiBIT Lytic Assay reagents were added to the cells. Luminescence was acquired on EnVision™ Multilabel Reader (PerkinElmer, Santa Clara, CA, USA).

SMILES	DC50 (PTPN2 [1])	DC50 (PTPN2 [2])
Cn1c(=O)n(C2CCC(=O)NC2=O)c2ccc(C3CCN(C(=O)CCC(=O)NCCOc4ccc5cc(O)c(N6CC(=O)NS6(=O)=O)c(F)c5c4)CC3)cc21 (stereo not shown) [Example 30]	≥ 1000 nM	≥ 1000 nM
Cn1c(=O)n(C2CCC(=O)NC2=O)c2ccc(C3CCN(C(=O)NCCOc4ccc5cc(O)c(N6CC(=O)NS6(=O)=O)c(F)c5c4)CC3)cc21 (stereo not shown) [Example 31]	≥ 1000 nM	200 to 1000 nM
O=C1CCC(N2Cc3c(OCC(=O)N4CCC(C(=O)N5CC(Oc6ccc7cc(O)c(N8CC(=O)NS8(=O)=O)c(F)c7c6)C5)CC4)cccc3C2=O)C(=O)N1 (stereo not shown) [Example 32]	200 to 1000 nM	200 to 1000 nM
Cn1c(=O)n(C2CCC(=O)NC2=O)c2cccc(C3CCN(CC(=O)NCCOc4ccc5cc(O)c(N6CC(=O)NS6(=O)=O)c(F)c5c4)CC3)c21 (stereo not shown) [Example 33]	≥ 1000 nM	200 to 1000 nM
Cn1c(=O)n(C2CCC(=O)NC2=O)c2ccc(CCC(=O)NCCOc3ccc4cc(O)c(N5CC(=O)NS5(=O)=O)c(F)c4c3)cc21 (stereo not shown) [Example 34]	≥ 1000 nM	≥ 1000 nM
O=C1CCC(N2Cc3cc(NCC(=O)N4CCC(C(=O)NCCOc5ccc6cc(O)c(N7CC(=O)NS7(=O)=O)c(F)c6c5)CC4)ccc3C2=O)C(=O)N1 (stereo not shown) [Example 35]	200 to 1000 nM	200 to 1000 nM
O=C1CCC(N2Cc3c(NCC(=O)N4CC(C(=O)NCCOc5ccc6cc(O)c(N7CC(=O)NS7(=O)=O)c(F)c6c5)C4)cccc3C2=O)C(=O)N1 (stereo not shown) [Example 36]	200 to 1000 nM	200 to 1000 nM
CC(C)(Nc1cccc2c1C(=O)N(C1CCC(=O)NC1=O)C2=O)c1cn(CCOCCC(=O)NCCOc2ccc3cc(O)c(N4CC(=O)NS4(=O)=O)c(F)c3c2)nn1 (stereo not shown) [Example 37]	≥ 1000 nM	≥ 1000 nM
O=C(CCOCCn1cc(C2(Nc3cccc4c3C(=O)N(C3CCC(=O)NC3=O)C4=O)CC2)nn1)NCCOc1ccc2cc(O)c(N3CC(=O)NS3(=O)=O)c(F)c2c1 (stereo not shown) [Example 38]	≥ 1000 nM	≥ 1000 nM
Cn1c(=O)n(C2CCC(=O)NC2=O)c2cccc(C3CCN(CCOCCC(=O)NCCOc4ccc5cc(O)c(N6CC(=O)NS6(=O)=O)c(F)c5c4)CC3)c21 (stereo not shown) [Example 39]	≥ 1000 nM	≥ 1000 nM
O=C(CN1CCC(n2cc(CNc3cccc4c3C(=O)N(C3CCC(=O)NC3=O)C4=O)nn2)CC1)NCCOc1ccc2cc(O)c(N3CC(=O)NS3(=O)=O)c(F)c2c1 (stereo not shown) [Example 40]	≥ 1000 nM	200 to 1000 nM
O=C(CCC1CCN(C(=O)CNc2cccc3c2C(=O)N(C2CCC(=O)NC2=O)C3=O)CC1)NCCOc1ccc2cc(O)c(N3CC(=O)NS3(=O)=O)c(F)c2c1 (stereo not shown) [Example 41]	≥ 1000 nM	200 to 1000 nM
O=C(CN1CC(n2cc(CNc3cccc4c3C(=O)N(C3CCC(=O)NC3=O)C4=O)nn2)C1)NCCOc1ccc2cc(O)c(N3CC(=O)NS3(=O)=O)c(F)c2c1 (stereo not shown) [Example 42]	≥ 1000 nM	200 to 1000 nM
O=C(CCOCCC(=O)N1CCN(c2ccc(NC3CCC(=O)NC3=O)cc2)CC1)NCCOc1ccc2cc(O)c(N3CC(=O)NS3(=O)=O)c(F)c2c1 (stereo not shown) [Example 43]	≥ 1000 nM	≥ 1000 nM
O=C(CCOCCOCCn1cc(CNc2cccc3c2C(=O)N(C2CCC(=O)NC2=O)C3=O)nn1)NCCOc1ccc2cc(O)c(N3CC(=O)NS3(=O)=O)c(F)c2c1 (stereo not shown) [Example 44]	≥ 1000 nM	≥ 1000 nM
O=C(CCOCCNC(=O)CNc1cccc2c1CN(C1CCC(=O)NC1=O)C2=O)NCCOc1ccc2cc(O)c(N3CC(=O)NS3(=O)=O)c(F)c2c1 (stereo not shown) [Example 45]	≥ 1000 nM	200 to 1000 nM
O=C(CCOCCOCCNC(=O)CNc1cccc2c1CN(C1CCC(=O)NC1=O)C2=O)NCCOc1ccc2cc(O)c(N3CC(=O)NS3(=O)=O)c(F)c2c1 (stereo not shown) [Example 46]	≥ 1000 nM	≥ 1000 nM
O=C(CCCCCn1cc(CNc2cccc3c2C(=O)N(C2CCC(=O)NC2=O)C3=O)nn1)NCCOc1ccc2cc(O)c(N3CC(=O)NS3(=O)=O)c(F)c2c1 (stereo not shown) [Example 47]	≥ 1000 nM	≥ 1000 nM
O=C(CCOCCn1cc(CNc2cccc3c2C(=O)N(C2CCC(=O)NC2=O)C3=O)nn1)NCCOc1ccc2cc(O)c(N3CC(=O)NS3(=O)=O)c(F)c2c1 (stereo not shown) [Example 48]	≥ 1000 nM	≥ 1000 nM

SMILES	DC50 (PTPN2 [1])	DC50 (PTPN2 [2])
Cn1c(=O)n(C2CCC(=O)NC2=O)c2ccc(C3CCN(CCNc4ccc5c(F)c(N6CC(=O)NS6(=O)=O)c(O)cc5c4)CC3)cc21 (stereo not shown) [Example 52]	≥ 1000 nM	≥ 1000 nM
Cn1c(=O)n(C2CCC(=O)NC2=O)c2ccc(NC3CCN(CCNc4ccc5c(F)c(N6CC(=O)NS6(=O)=O)c(O)cc5c4)CC3)cc21 (stereo not shown) [Example 53]	≥ 1000 nM	200 to 1000 nM
Cn1c(=O)n(C2CCC(=O)NC2=O)c2ccc(C3CCN(C(=O)CNc4ccc5c(F)c(N6CC(=O)NS6(=O)=O)c(O)cc5c4)CC3)cc21 (stereo not shown) [Example 54]	≥ 1000 nM	200 to 1000 nM
O=C1CCC(Nc2ccc(C3CCN(CC(=O)Nc4ccc5c(F)c(N6CC(=O)NS6(=O)=O)c(O)cc5c4)CC3)c(F)c2)C(=O)N1 (stereo not shown) [Example 55]	≥ 1000 nM	200 to 1000 nM
Cn1c(=O)n(C2CCC(=O)NC2=O)c2ccc(N3CCC4(CC3)CN(C(=O)c3ccc5c(F)c(N6CC(=O)NS6(=O)=O)c(O)cc5c3)C4)cc21 (stereo not shown) [Example 56]	200 to 1000 nM	≥ 1000 nM
O=C1CCC(N2Cc3c(NCc4cn(C5CN(C(=O)Nc6ccc7c(F)c(N8CC(=O)NS8(=O)=O)c(O)cc7c6)C5)nn4)cccc3C2=O)C(=O)N1 (stereo not shown) [Example 57]	≥ 1000 nM	200 to 1000 nM
O=C1CCC(N2C(=O)c3cccc(NCc4cn(C5CN(CC(=O)Nc6ccc7c(F)c(N8CC(=O)NS8(=O)=O)c(O)cc7c6)C5)nn4)c3C2=O)C(=O)N1 (stereo not shown) [Example 58]	≥ 1000 nM	200 to 1000 nM
O=C1CCC(N2C(=O)c3ccc(OCc4cn(CCC(=O)Nc5ccc6c(F)c(N7CC(=O)NS7(=O)=O)c(O)cc6c5)nn4)cc3C2=O)C(=O)N1 (stereo not shown) [Example 60]	200 to 1000 nM	200 to 1000 nM
O=C1CCC(N2C(=O)c3cccc(NCc4cccc(C(=O)Nc5ccc6c(F)c(N7CC(=O)NS7(=O)=O)c(O)cc6c5)c4)c3C2=O)C(=O)N1 (stereo not shown) [Example 61]	≥ 1000 nM	200 to 1000 nM
O=C1CCC(N2Cc3c(NCc4cn(CCC(=O)Nc5ccc6c(F)c(N7CC(=O)NS7(=O)=O)c(O)cc6c5)nn4)cccc3C2=O)C(=O)N1 (stereo not shown) [Example 62]	≥ 1000 nM	200 to 1000 nM
O=C1CCC(N2C(=O)c3cccc(NCc4cn(CCOCCOCCC(=O)Nc5ccc6c(F)c(N7CC(=O)NS7(=O)=O)c(O)cc6c5)nn4)c3C2=O)C(=O)N1 (stereo not shown) [Example 63]	≥ 1000 nM	200 to 1000 nM
O=C1CCC(N2C(=O)c3ccc(NCc4cnn(C5CN(C(=O)Nc6ccc7c(F)c(N8CC(=O)NS8(=O)=O)c(O)cc7c6)C5)c4)cc3C2=O)C(=O)N1 (stereo not shown) [Example 64]	≥ 1000 nM	200 to 1000 nM
O=C1CCC(N2Cc3c(NCC(=O)N4CCC(C(=O)Nc5ccc6c(F)c(N7CC(=O)NS7(=O)=O)c(O)cc6c5)CC4)cccc3C2=O)C(=O)N1 (stereo not shown) [Example 65]	200 to 1000 nM	200 to 1000 nM
CC(Nc1cccc2c1C(=O)N(C1CCC(=O)NC1=O)C2=O)c1cn(CCC(=O)Nc2ccc3c(F)c(N4CC(=O)NS4(=O)=O)c(O)cc3c2)nn1 (stereo not shown) [Example 66]	≥ 1000 nM	200 to 1000 nM
O=C1CCC(N2C(=O)c3cccc(NCc4cn(C5CCN(CC(=O)Nc6ccc7c(F)c(N8CC(=O)NS8(=O)=O)c(O)cc7c6)CC5)nn4)c3C2=O)C(=O)N1 (stereo not shown) [Example 67]	≥ 1000 nM	200 to 1000 nM
O=C1CCC(N2C(=O)c3cccc(NCc4cn(CCC(=O)Nc5ccc6c(F)c(N7CC(=O)NS7(=O)=O)c(O)cc6c5)nn4)c3C2=O)C(=O)N1 (stereo not shown) [Example 68]	≥ 1000 nM	200 to 1000 nM
O=C1CCC(N2C(=O)c3cccc(NCc4cn(CCC(=O)Nc5ccc6c(Cl)c(N7CC(=O)NS7(=O)=O)c(O)cc6c5)nn4)c3C2=O)C(=O)N1 (stereo not shown) [Example 69]	≥ 1000 nM	≥ 1000 nM
Cn1c(=O)n(C2CCC(=O)NC2=O)c2ccc(C3CCN(CCCC(=O)Nc4ccc5c(F)c(N6CC(=O)NS6(=O)=O)c(O)cc5c4)CC3)cc21 (stereo not shown) [Example 70]	≥ 1000 nM	≥ 1000 nM
Cn1c(=O)n(C2CCC(=O)NC2=O)c2ccc(C3CCN(C(=O)c4ccc5c(F)c(N6CC(=O)NS6(=O)=O)c(O)cc5c4)CC3)cc21 (stereo not shown) [Example 71]	≥ 1000 nM	≥ 1000 nM
